From patent EP3150574B1, “AMANTADINE NITRATE COMPOUND HAVING A NEUROPROTECTIVE EFFECT AND PREPARATION AND MEDICAL USE THEREOF” (Guangzhou Magpie Pharmaceuticals Co., Ltd., priority 2014, dated 2015)

What follows are compounds tested on primary cerebellum granule cells of rats (assay: Protective effects of compounds on primary cerebellum granule cells against glutamate-induced excitotoxic injury (MTT cell viability)). Conditions: protective effect on rat's nerve cells, pre-protection 2 h, then for 24 h, absorbance at 570 nm.
Format: cell-based
Description: Isolated primary cerebellum granule cells of infant rats were inoculated in 96-well plates with 1.2×10^5/well by using 10% FBS + 25 mM KCl + 2 mM Glutamine + 1% of double-antibody BME medium. After 24 hours, cytarabine with a final concentration of 10 iM was added to inhibit the proliferation of neurogliocyte cells. After the day 4, glucose with the final concentration of 5 mM was added every four days to complement energy metabolism and water evaporation of cells. The materials were placed in a cell incubator (37 °C, 5% CO2) to be cultured for 10 days. […] After pre-protection for 2 h, 200 iM of glutamate was added to induce cell damage for 24h, and then MTT was added to culture for 4 h. The supernatant fraction was sucked, and 150 iL of DMSO was added to each well for dissolving. After blending with shaking, the light absorption values under 570 nm wavelength was measured with a microplate reader, and the viability of cells was calculated. Cell viability (%) = absorbance of different groups / absorbance of the normal control group × 100%.

SMILES | EC50
CCC12CC3CC(N)(C1)CC(CO[N+](=O)[O-])(C3)C2 (stereo not shown) [NM-004] | 8.12 µM
CCC12CC3CC(N)(C1)CC(CCCO[N+](=O)[O-])(C3)C2 (stereo not shown) [NM-005] | 6.06 µM
NC12CC3CC(CCO[N+](=O)[O-])(C1)CC(CCO[N+](=O)[O-])(C3)C2 [NM-009] | 5.2 µM
CC(CO[N+](=O)[O-])CC12CC3CC(N)(C1)CC(CC(C)CO[N+](=O)[O-])(C3)C2 (stereo not shown) [NM-012] | 9.3 µM
